Where two headings read alike, the source gives them in different places.
Legend:
[1] = tested on: ALL (Acute Lymphocytic Leukemia) patient tumor cells; assay: Fluorometric Microculture Cytotoxicity Assay (FMCA), patient tumor samples, ALL; type: cell-based; conditions: Homo sapiens, range over n=21 samples
Excerpt: (§1) Cell culture. Patient tumor samples (98) and preparations (4) of normal peripheral blood mononuclear cells (PBMC), detailed in Table 1, were used to determine the activity of VLX50 and, for comparison, six other cytotoxic drugs chosen to represent different mechanistic classes.
(§2) The tumor samples were obtained by bone marrow/peripheral blood sampling, routine surgery or diagnostic biopsy. Leukemic cells and PBMCs were isolated by 1.077 g ml-1 Ficoll-Paque centrifugation (Larsson et al., 1992). Tumor tissue from solid tumor samples was minced into small pieces and tumor cells were isolated by collagenase dispersion followed by Percoll density gradient centrifugation (Csoka et al., 1994). […] Cell viability was determined by trypan blue exclusion test and the proportion of tumor cells in the preparation was judged by inspection of May-Grunvald-Giemsa stained cytospin slides (FIG. 1a). […]
(§3) Fluorometric Microculture Cytotoxicity Assay. The Fluorometric Microculture Cytotoxicity Assay, FMCA, described in detail previously (Lindhagen et al., 2008), is based on measurement of fluorescence generated from hydrolysis of fluorescein diacetate (FDA) to fluorescein by cells with intact plasma membranes. […] Quality criteria for a successful assay included a mean coefficient of variation of less than 30% in the control and a fluorescence signal in control wells of more than 5 times the blank. […]

[2] = tested on: CLL (Chronic Lymphocytic Leukemia) patient tumor cells; assay: FMCA, patient tumor samples, CLL; type: cell-based; conditions: Homo sapiens, range over n=9 samples
Excerpt: as §1, §2, §3

[3] = tested on: NHL (Non-Hodgkins Lymphoma) patient tumor cells; assay: FMCA, patient tumor samples, NHL; type: cell-based; conditions: Homo sapiens, range over n=13 samples
Excerpt: as §1, §2, §3

[4] = tested on: Breast cancer patient tumor cells; assay: FMCA, patient tumor samples, breast cancer; type: cell-based; conditions: Homo sapiens
Excerpt: as §1, §2, §3

[5] = tested on: Ovarian carcinoma patient tumor cells (PHTC); assay: FMCA, patient tumor samples, ovarian carcinoma; type: cell-based, human
Excerpt: as §1
The tumor samples were obtained by bone marrow/peripheral blood sampling, routine surgery or diagnostic biopsy. Leukemic cells and PBMCs were isolated by 1.077 g ml-1 Ficoll-Paque centrifugation (Larsson et al., 1992). Tumor tissue from solid tumor samples was minced into small pieces and tumor cells were isolated by collagenase dispersion followed by Percoll density gradient centrifugation (Csoka et al., 1994). The sampling of primary tumor cells was approved by the local ethics committee at Uppsala University Hospital. Cell viability was determined by trypan blue exclusion test and the proportion of tumor cells in the preparation was judged by inspection of May-Grunvald-Giemsa stained cytospin slides (FIG. 1a). All samples used in this study contained more than 70% tumor cells.
Fluorometric Microculture Cytotoxicity Assay. The Fluorometric Microculture Cytotoxicity Assay, FMCA, described in detail previously (Lindhagen et al., 2008), is based on measurement of fluorescence generated from hydrolysis of fluorescein diacetate (FDA) to fluorescein by cells with intact plasma membranes. […] The plates were incubated for 72 h and then transferred to an integrated HTS SAIGAN Core System consisting of an ORCA robot (Beckman Coulter) with CO2 incubator (Cytomat 2C, Kendro, Sollentuna, Sweden), dispensor module (Multidrop 384, Titertek, Huntsville, Ala.), washer module (ELx 405, Bio-Tek Instruments Inc), delidding station, plate hotels, barcode reader (Beckman Coulter), liquid handler (Biomek 2000, Beckman Coulter) and a multipurpose reader (FLUOstar Optima, BMG Labtech GmbH, Offenburg, Germany) for automated FMCA. Quality criteria for a successful assay included a mean coefficient of variation of less than 30% in the control and a fluorescence signal in control wells of more than 5 times the blank. […]

[6] = tested on: Lung cancer patient tumor cells; assay: FMCA, patient tumor samples, lung cancer; type: cell-based; conditions: Homo sapiens
Excerpt: as §1, §2, §3

[7] = tested on: Colon cancer patient tumor cells; assay: FMCA, patient tumor samples, colon cancer; type: cell-based; conditions: Homo sapiens
Excerpt: as §1, §2, §3

[8] = tested on: Renal cancer patient tumor cells; assay: FMCA, patient tumor samples, renal cancer; type: cell-based; conditions: Homo sapiens
Excerpt: as §1, §2, §3

[9] = tested on: normal peripheral blood mononuclear cells (PBMC); assay: FMCA, normal peripheral blood mononuclear cells; type: cell-based; conditions: Homo sapiens
Excerpt: as §1, §2, §3

[10] = tested on: intracellular free iron in MCF-7 cells; assay: Measurement of intracellular iron (Phen Green); type: cell-based; conditions: MCF-7, Phen Green fluorescent probe, 100 μM or 500 μM
Excerpt: Measurement of intracellular iron. The fluorescent membrane permeable Fe sensor, Phen Green (Invitrogen AB, Göteborg, Sweden) was used to measure changes in intracellular free iron concentration. Fluorescence of the PhenGreen indicators is quenched upon binding Fe^2+ and Fe^3+. The emission intensity of the PhenGreen FL indicator depends on both the metal ion's concentration and the indicator's concentration. MCF-7 cells were harvested and diluted to 500,000 per mL in complete medium, loaded with 10 μM PhenGreen diacetate for 45 minutes and plated to flat-bottomed 96W microtiter plates. The plates were washed ×2 with PBS, resuspended in 180 μl PBS per well and subsequently analyzed by a plate reading fluorometer Fluostar Optima which is programmed to scan fluorescence once a minute for 20 minutes with a break after 5 minutes, during which 20 μl PBS, or VLX50 (100 μM or 500 μM) was added.
Mechanism of action. Mechanistic exploration was performed using gene expression analysis of drug treated tumor cell cultures to generate a drug specific signature. The breast cancer cell line MCF-7 was treated with VLX50 or vehicle (DMSO) and analyzed for gene expression using the Affymetrix U1300plus chip. […] This query signature was subsequently submitted to the GSEA and the Connectivity map databases and strong connections to hypoxia inducible factor (HIF1 alfa) and iron chelators were retrieved. […]

[11] = tested on: BNIP and Ndrg-1 expression; assay: Gene expression analysis of drug treated tumor cell cultures; type: cell-based; conditions: HIF1 alfa dependent genes
Procedure: Mechanism of action. Mechanistic exploration was performed using gene expression analysis of drug treated tumor cell cultures to generate a drug specific signature. The breast cancer cell line MCF-7 was treated with VLX50 or vehicle (DMSO) and analyzed for gene expression using the Affymetrix U1300plus chip. […] This query signature was subsequently submitted to the GSEA and the Connectivity map databases and strong connections to hypoxia inducible factor (HIF1 alfa) and iron chelators were retrieved. […] The mechanism was confirmed by direct measurements of drug induced decrease in intracellular iron concentration (FIG. 6b).

ROS formation = assay: ROS formation; conditions: in contrast to triapine
[12] = n=7, 72 h FMCA, read-out: Median IC50
[13] = range over n=7 samples, read-out: IC50 Range
[14] = n=6, 72 h FMCA, read-out: Median IC50
[15] = range over n=6 samples, read-out: IC50 Range

- IC50 [2]: 0.035 to 9.4 µM
- IC50 [3]: 0.28 to 40 µM
- IC50 [4, 12]: 8.23 µM
- IC50 [4, 13]: 0.87 to 40 µM
- IC50 ([5]; Homo sapiens, 72 h, n=14, 72 h FMCA, read-out: Median IC50): < 5 µM
- IC50 ([5]; Homo sapiens, range over n=14 samples, read-out: IC50 Range): 0.26 to 40 µM
- IC50 ([5]; n=14, 72 h FMCA, read-out: Median IC50): 3.46 µM
- IC50 [6, 14]: 13.6 µM
- IC50 [6, 15]: 0.51 to 40 µM
- IC50 [7, 14]: > 40 µM
- IC50 [7, 15]: 0.49 to 40 µM
- IC50 [8, 12]: > 40 µM
- IC50 [8, 13]: 23.8 to 40 µM
- ROS formation (ROS formation): does not appear to induce ROS formation
Compound: COCCCNC(=S)N/N=C\c1ccccn1 [VLX50, N1-(3-methoxypropyl)-2-(pyridylmethylidene)-hydrazine-1-carbothioamide]
- IC50 [1]: 0.055 to 11.2 µM
- IC50 ([9]; n=4, 72 h FMCA, read-out: Median IC50): 8.92 µM
- IC50 ([9]; range over n=4 samples, read-out: IC50 Range): 2.88 to 13.3 µM
- Intracellular iron concentration [10]: decrease
- Expression of BNIP and Ndrg-1 [11]: significantly increasing

Reference: US20120309798A1, “Tumour Treatment Agents and Method” (Vivolux AB, priority 2009, published 2012)
